Measurements as given in article PMC9247001, “Ligand-induced structural transitions combined with paramagnetic ions facilitate unambiguous NMR assignments of methyl groups in large proteins” (Journal of Biomolecular Nmr, 2022).
Read-outs that look alike come from different tables or passages of the source.

How the values were obtained:
[1] = 1H NMR titration of di- and trivalent metals over UTP (KD1); format: binding; conditions: metal 0-1400 µM, UTP 239.2 or 250 µM, 293 K, 600 MHz, read-out: KD1, dissociation constant for the interaction of UTP with di- and trivalent metals
UTP:LmUGP complex = test: Four-states binding model, metal binding to UTP in complex with LmUGP (KD4); design: species or system Leishmania major; conditions: approximated by nonlinear least-squares minimization of the four-states model from KD1-3
[2] = design: method as in Zea et al. [2008]; conditions: isothermal titration calorimetry; ref Zea et al. [2008]; read-out: KD1, dissociation constant for the interaction of UTP with divalent metals (converted); cited from earlier work

| Structure (SMILES) | Kd [1] [µM] | Kd (UTP:LmUGP complex) [µM] | Kd [2] [µM] |
| --- | --- | --- | --- |
| [Cl][Ce]([Cl])[Cl] [CeCl3] | 13 ± 4 | 17 ± 5 |  |
| [Cl][Eu]([Cl])[Cl] [EuCl3] | 28 ± 9 | 38 ± 12 |  |
| [Cl][La]([Cl])[Cl] [LaCl3] | 11 ± 5 | 15 ± 7 |  |
| [Cl][Lu]([Cl])[Cl] [LuCl3] | 38 ± 17 | 46 ± 21 |  |
| [Cl-].[Cl-].[Mg+2] [MgCl2] | 82 ± 6 | 115 ± 10 | 70 |
| [Cl][Mn][Cl] [MnCl2] |  |  | 77 ± 12 |
